This note sets out measurements from patent publication US20210230131A1, “POLYAMINO BIARYL COMPOUNDS AND THEIR USE” (INSERM (INSTITUT NATIONAL DE LA SANTÉ ET DE LA RECHERCHE …, priority 2018, published 2021).

A word on the IC50: it is the midpoint of a concentration-inhibition curve. Higher therefore signals lower potency.

Structures are written as SMILES.

Data set [1] relates to Aβ1-42 peptide secretion. As to the kind of experiment: Quantification of secreted Aβ1-42 by ELISA in SY5Y-APP695WT cells. Format: cell-based. As to conditions: Homo sapiens; concentration inhibiting 50% of Aβ1-42 peptide secretion in SY5Y cells; 24 h treatment; mean ± SD of at least two experiments in triplicate. Here is the method:
Cell culture and treatment. The human neuroblastoma cell line […] was maintained in Dulbecco's modified Eagle medium (DMEM, high glucose, pyruvate-GIBCO by Life Technologies) supplemented with 10% foetal bovine serum, 2 mM L-glutamine, 1 mM non-essential amino acids and penicillin/streptomycin (GIBCO by Life Technologies) at 37° C. in a 5% CO2 humidified incubator. […] cells were maintained in 75 cm^2 culture flasks (Falcon) with supplemented DMEM medium until they reached 80% of confluence 24 h before treatment. For compounds treatment, a 10 mM stock solution was diluted in freshly supplemented DMEM medium to obtain the precise final concentration of drug. Bafilomycin A1 (BafA1), the vacuolar […] type H+ ATPase inhibitor, was purchased from Merck Millipore and was used at a final dilution of 100 nM. For drug treatment, cells were plated at a rate of 5·10^5 cells per well into 12-well plates (Falcon) and cultured with 1 mL supplemented DMEM cell medium for 24 h before drug exposure. The following day, cell medium was replaced with fresh medium containing drugs diluted at the indicated concentrations. Cells were treated for 24 h. At the end of treatments, the cell medium was collected and kept at -80° C. until use for dosage. Then, cells were rinsed once with PBS and extracted in 100 μL of Laemmli buffer (10 mM Tris, 20% glycerol and 2% Sodium dodecyl sulfate) using a cell-scraper. The cell lysate was further sonicated (30 pulses of 0.5 s, 60 Hz) for 5 min. Total protein concentration was determined using the Pierce BCA Protein Assay Kit (Thermo scientific) according to the manufacturer's instructions. Samples were stored at -80° C. until analysis. Quantification of secreted Aβ1-40/1-42 and sAPPα/sAPPβ. Conditioned media of […] collected at the end of treatments were centrifuged at 1000 g for 5 min to eliminate cells debris. Aβ1-40 and Aβ1-42 peptide concentrations in […] were determined using amyloid-beta 40 and 42 Human ELISA kits (Invitrogen) according to the manufacturer's instructions after 1:10 and 1:2 dilutions of supernatants in ELISA buffer, respectively. sAPPα and sAPPβ concentrations in ng/mL were determined using the sAPPα/sAPPβ kit (Meso Scale Diagnostics, MSD®) according to the manufacturer's instructions. Compounds of the invention (compounds 24-37, 41, 44 and 51-58) were evaluated for their ability to modulate APP processing on SY5Y human neuroblastoma cell line stably expressing the neuronal isoform of human wild-type APP695 (SYSY-APPwt). Aβ levels (Aβ1-40 and Aβ1-42) after treatment with reference and tested compounds were measured by ELISA (Table 2). […] APP carboxy-terminal fragments (αCTFs and AICD) were measured by Western blot and quantified. The effect of reference and tested compounds on αCTFs and AICD are expressed as the intensity of corresponding western-blot bands resulting from the secretase cleavages.
In general terms: An ELISA detects its analyte on a solid surface through an enzyme-linked reagent.

Data set [2] relates to Tau. As to the kind of experiment: Tau phosphorylation by Western-blotting in hippocampus and cortex of ThyTau22 mice. The data set is classed as in vivo. The note with it: one month treatment; for phosphorylation of Tau (overall): hippocampus and cortex. Here is the method: (§1) Thy-Tau22 transgenic colonies (C57Bl/6J genetic background) were obtained by crossing heterozygous males C57Bl/6J with WT females. All animals were housed in a pathogen-free facility at 5 to 6 animals per cage (Techniplast Cages 1284L), with ad libitum access to food and water in a 12/12-hour light-dark cycle and maintained under a constant temperature of 22° C. For treatment, animals were randomly distributed and compound 30 or 31 was provided in the drinking water at a final concentration of 1 mg/kg, ie […] for drinking solutions taking into account an average weight of 25 g/mouse drinking 4 mL/day. […] Food consumption and bodyweight were also assessed. In WT animals, a pilot study of drug treatment was performed for one month to establish the innocuousness of compound 30 and 31 treatments. Thy-Tau22 females were treated for 1 months, starting at 6 months of age.
Hyperphosphorylation and phosphorylation levels of Tau. Tau expression, phosphorylation and hyperphosphorylation in the hippocampus and in the cortex were investigated by Western-blotting (FIGS. 5 and 6). The mice were euthanized by beheading and their brain was dissected and was put for few seconds in an isopropanol solution for post-mortem conservation. The samples were sonicated with a Tris-Sucrose Buffer during 30s and were prepared for Western-blot analysis by adding 1 volume of NuPage NuPAGER©LDS 2× sample buffer supplemented with 20% NuPAGER© sample reducing agents (Invitrogen). Samples were heated 10 min at 70° C. 8 μg of proteins per well were loaded onto precast 12% Criterion XT Bis-Tris polyacrylamide 26 wells gels (Bio-Rad) and electrophoresis was achieved by applying a tension of 200V during 60 min using a Criterion electrophoresis Cell with the NuPAGER©MOPS SDS running buffer (1×). Proteins were transferred to a nitrocellulose membrane of […] pore size (G&E Healthcare) using the Criterion blotting system by applying a tension of 100 V for 40 min. Molecular weights calibration was achieved using molecular weight markers (Novex and Magic Marks, Life Technologies). Protein transfer and quality were determined by a reversible Ponceau Red coloration (0.2% Xylidine Ponceau Red and 3% Trichloroacetic acid). Membranes were then blocked in 25 mM Tris-HCl pH 8.0, 150 mM NaCl, 0.1% Tween-20 (v/v) (TBS-T) and 5% (w/v) of skimmed milk (TBS-M) or 5% (w/v) of bovine serum albumin (TBS-BSA) depending on the antibody during 1 hour. […] Quantifications of protein expression levels were performed with ImageQuantTL Software. The results obtained with the quantification of the treated samples were divided by the results obtained with the quantification of the housekeeping gene (GAPDH) in order to check if the amount of proteins was homogeneous in each well. […]

Data set [3] in a line: Stability of aqueous drinking solutions. Format: physicochemical. How it is done:
as §1

As for `CN(C)Cc1ccccc1-c1ccc(NCCCN2CCCCC2)c(OCCN2CCCCC2)c1` [Compound 30, 4-(2-[(Dimethylamino)methyl]phenyl)-2-[2-(piperidin-1-yl)ethoxy]-N-[3-(piperidin-1-yl)propyl]aniline], half-maximal inhibition in data set [1] (IC50) required 3.4 ± 1.9 µM. Besides, the “phosphorylation of Tau (overall)” value in data set [2] is listed as “showed less effect on Tau phosphorylation”. In addition, the “stability of aqueous solutions” value in data set [3] is listed as “stable during more than one week”.
In data set [1], `CN(C)Cc1ccccc1-c1ccc(NCCCN2CCCCC2)c(OCCC2CCCCC2)c1` [Compound 31, 3-(2-cyclohexylethoxy)-2′-((dimethylamino)methyl)-N-(3-(piperidin-1-yl)propyl)-[1,1′-biphenyl]-4-amine] had an IC50 of 2.8 ± 0.1 µM. Further, in data set [2] (Western-blot), the “Tau phosphorylation sites in the cortex” value was “decreased significantly the p422, AT100, p396 and p262 phosphorylation sites”; the “Tau phosphorylation sites in the hippocampus” value was “p422 and p262 phosphorylation sites were also significantly reduced”. Also, in data set [2], the “phosphorylation of Tau (overall)” value was “decreased the phosphorylation of Tau in the hippocampus and in the cortex”. Besides, in data set [3], the “stability of aqueous solutions” value is reported as “stable during more than one week”.
